Measurements: ChEMBL document CHEMBL4052667 (Bioorg Med Chem, 2017)
Active and inactive are the calls of the source. The rule behind the calls is not given here.

Columns and labels:
T47D = experiment: Antiproliferative activity against human T47D cells after 72 hrs by MTT assay; format: functional, cell-based
MCF7 = experiment: Antiproliferative activity against human MCF7 cells after 72 hrs by MTT assay; format: functional, cell-based; conditions: MCF7, 72 h
MDA-MB-231 [1] = experiment: Antiproliferative activity against human MDA-MB-231 cells after 72 hrs by MTT assay; format: functional, cell-based; conditions: MDA-MB-231, 72 h
HCC827 = experiment: Antiproliferative activity against human HCC827 cells after 72 hrs by MTT assay; format: functional, cell-based; conditions: HCC827, 72 h
HeLa = experiment: Antiproliferative activity against human HeLa cells after 72 hrs by MTT assay; format: functional, cell-based
K562 = experiment: Antiproliferative activity against human K562 cells after 72 hrs by MTT assay; format: functional, cell-based; conditions: K562, 72 h
U-937 = experiment: Antiproliferative activity against human U937 cells after 72 hrs by MTT assay; format: functional, cell-based; conditions: U-937, 72 h
MDA-MB-231 [2] = experiment: Antiproliferative activity against human MDA-MB-231 cells after 5 days by MTT assay; format: functional, cell-based; conditions: MDA-MB-231, 120 h
MCF-10A = experiment: Antiproliferative activity against human MCF10A cells after 72 hrs by MTT assay; format: cell-based
Raji [3] = experiment: Antiproliferative activity against human Raji cells after 3 days by MTT assay; format: functional, cell-based; conditions: 72 h
HCC1937 = experiment: Antiproliferative activity against human HCC1937 cells after 3 days by MTT assay; format: functional, cell-based; conditions: HCC1937, 72 h
[4] = biological target: Poly [ADP-ribose] polymerase 1 (Homo sapiens, UniProt P09874); experiment: Inhibition of recombinant full length human N-terminal GST-tagged PARP1 expressed in baculovirus infected Sf9 cells using biotinylated substrate after 1 hr by UV/Vis spectrophotometric analysis
Sequence of Poly [ADP-ribose] polymerase 1 (P09874 whole entry, the tested form may be a part): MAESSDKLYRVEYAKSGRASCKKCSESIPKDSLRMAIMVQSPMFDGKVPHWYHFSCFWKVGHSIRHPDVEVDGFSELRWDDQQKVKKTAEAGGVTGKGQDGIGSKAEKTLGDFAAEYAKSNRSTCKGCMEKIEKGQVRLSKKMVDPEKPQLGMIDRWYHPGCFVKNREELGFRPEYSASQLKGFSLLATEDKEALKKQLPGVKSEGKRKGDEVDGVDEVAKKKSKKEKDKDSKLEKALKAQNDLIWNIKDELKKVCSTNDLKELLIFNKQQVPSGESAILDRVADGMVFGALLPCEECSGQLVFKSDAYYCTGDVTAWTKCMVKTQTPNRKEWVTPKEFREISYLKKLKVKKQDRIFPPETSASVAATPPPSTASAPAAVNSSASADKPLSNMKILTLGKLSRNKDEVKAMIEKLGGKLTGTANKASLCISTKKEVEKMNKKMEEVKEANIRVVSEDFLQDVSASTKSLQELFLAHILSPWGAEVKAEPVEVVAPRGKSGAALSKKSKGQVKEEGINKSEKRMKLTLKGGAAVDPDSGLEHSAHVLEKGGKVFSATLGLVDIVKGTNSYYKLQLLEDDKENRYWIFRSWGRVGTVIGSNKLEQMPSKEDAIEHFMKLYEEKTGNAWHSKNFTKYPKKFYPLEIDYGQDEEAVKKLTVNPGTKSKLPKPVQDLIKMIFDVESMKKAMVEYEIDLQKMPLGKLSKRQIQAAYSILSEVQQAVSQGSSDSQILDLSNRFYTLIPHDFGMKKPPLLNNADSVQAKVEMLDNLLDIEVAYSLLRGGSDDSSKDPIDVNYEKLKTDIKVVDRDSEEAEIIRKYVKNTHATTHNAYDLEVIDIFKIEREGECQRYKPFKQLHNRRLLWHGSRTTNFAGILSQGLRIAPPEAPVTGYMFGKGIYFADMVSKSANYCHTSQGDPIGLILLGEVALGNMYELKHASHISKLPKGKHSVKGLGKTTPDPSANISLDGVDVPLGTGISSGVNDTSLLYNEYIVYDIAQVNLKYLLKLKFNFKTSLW

[5] = biological target: Poly [ADP-ribose] polymerase 2 (Homo sapiens, UniProt Q9UGN5); experiment: Inhibition of recombinant human N-terminal GST-tagged PARP2 (2 to 583 residues) expressed in baculovirus infected Sf9 cells using biotinylated substrate after 1 hr by UV/Vis spectrophotometric analysis
Sequence of Poly [ADP-ribose] polymerase 2 (Q9UGN5 whole entry, the tested form may be a part): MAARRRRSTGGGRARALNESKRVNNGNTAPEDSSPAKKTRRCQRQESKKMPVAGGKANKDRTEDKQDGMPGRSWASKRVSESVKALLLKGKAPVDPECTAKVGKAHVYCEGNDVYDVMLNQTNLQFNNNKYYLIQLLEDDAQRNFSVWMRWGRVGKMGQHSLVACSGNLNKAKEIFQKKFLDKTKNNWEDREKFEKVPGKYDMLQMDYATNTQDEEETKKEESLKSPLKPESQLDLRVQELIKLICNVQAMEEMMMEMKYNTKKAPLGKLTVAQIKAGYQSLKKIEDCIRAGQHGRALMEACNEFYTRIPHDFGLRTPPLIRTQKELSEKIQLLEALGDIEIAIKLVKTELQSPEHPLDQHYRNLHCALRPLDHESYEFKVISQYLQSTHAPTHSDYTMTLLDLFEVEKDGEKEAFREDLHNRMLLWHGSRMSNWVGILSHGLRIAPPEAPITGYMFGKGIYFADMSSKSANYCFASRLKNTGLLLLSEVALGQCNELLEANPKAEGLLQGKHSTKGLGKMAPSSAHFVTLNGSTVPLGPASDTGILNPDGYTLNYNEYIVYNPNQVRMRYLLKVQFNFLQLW

Histone deacetylase 1 = Histone deacetylase 1 (Homo sapiens, UniProt Q13547); experiment: Inhibition of HDAC1 (unknown origin) using acetylated peptide substrate preincubated for 15 mins followed by substrate addition measured after 60 mins by fluorescence analysis
Sequence of Histone deacetylase 1 (Q13547 whole entry): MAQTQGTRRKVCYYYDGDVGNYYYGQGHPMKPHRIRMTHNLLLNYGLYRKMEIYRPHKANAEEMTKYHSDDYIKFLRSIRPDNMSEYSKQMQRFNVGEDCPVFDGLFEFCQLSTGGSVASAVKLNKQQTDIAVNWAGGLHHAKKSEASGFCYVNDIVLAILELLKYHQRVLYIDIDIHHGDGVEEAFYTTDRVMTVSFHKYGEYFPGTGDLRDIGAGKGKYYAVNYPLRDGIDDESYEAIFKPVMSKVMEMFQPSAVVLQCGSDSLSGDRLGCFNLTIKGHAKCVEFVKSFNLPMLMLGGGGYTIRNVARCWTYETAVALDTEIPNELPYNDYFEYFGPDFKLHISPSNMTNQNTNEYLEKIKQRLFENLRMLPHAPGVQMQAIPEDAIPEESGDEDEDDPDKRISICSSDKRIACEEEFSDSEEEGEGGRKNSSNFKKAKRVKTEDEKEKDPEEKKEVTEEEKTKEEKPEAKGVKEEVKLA

[6] = biological target: T1, Protein deacetylase HDAC6 (Homo sapiens, UniProt Q9UBN7); experiment: Inhibition of HDAC6 (unknown origin) using acetylated peptide substrate preincubated for 15 mins followed by substrate addition measured after 60 mins by fluorescence analysis
T1 sequence (Q9UBN7 whole entry): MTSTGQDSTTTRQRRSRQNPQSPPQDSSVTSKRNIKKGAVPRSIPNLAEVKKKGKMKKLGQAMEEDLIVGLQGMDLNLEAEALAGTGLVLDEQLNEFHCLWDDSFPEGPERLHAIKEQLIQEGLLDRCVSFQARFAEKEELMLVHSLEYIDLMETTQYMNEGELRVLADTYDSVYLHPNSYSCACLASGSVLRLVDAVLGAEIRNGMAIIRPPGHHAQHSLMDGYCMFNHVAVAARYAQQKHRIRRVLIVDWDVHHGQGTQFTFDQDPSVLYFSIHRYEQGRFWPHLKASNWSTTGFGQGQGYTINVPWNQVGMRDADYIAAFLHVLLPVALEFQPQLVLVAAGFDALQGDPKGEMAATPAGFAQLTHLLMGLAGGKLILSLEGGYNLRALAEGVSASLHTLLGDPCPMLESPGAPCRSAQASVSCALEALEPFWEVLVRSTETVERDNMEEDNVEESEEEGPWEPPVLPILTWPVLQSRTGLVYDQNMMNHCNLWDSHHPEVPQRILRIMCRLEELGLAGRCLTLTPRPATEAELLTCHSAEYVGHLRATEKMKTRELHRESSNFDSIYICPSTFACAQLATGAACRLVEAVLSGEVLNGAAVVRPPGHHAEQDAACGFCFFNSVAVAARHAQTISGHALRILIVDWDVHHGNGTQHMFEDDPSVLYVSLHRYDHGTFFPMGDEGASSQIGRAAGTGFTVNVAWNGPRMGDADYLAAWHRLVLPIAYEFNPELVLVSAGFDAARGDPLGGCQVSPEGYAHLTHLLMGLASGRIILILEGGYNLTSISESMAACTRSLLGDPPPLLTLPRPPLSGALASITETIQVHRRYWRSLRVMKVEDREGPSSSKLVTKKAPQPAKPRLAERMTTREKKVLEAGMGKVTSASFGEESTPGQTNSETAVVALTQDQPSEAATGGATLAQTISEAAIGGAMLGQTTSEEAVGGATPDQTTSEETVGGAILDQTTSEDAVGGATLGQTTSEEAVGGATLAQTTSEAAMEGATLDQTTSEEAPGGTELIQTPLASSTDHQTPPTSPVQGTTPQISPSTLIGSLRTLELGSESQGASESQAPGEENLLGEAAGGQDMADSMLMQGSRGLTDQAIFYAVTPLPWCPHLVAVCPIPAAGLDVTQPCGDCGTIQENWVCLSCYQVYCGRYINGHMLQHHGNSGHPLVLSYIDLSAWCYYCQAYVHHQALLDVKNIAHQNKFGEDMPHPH

[7] = Antiproliferative activity against human MCF10A cells at less than 50 uM after 72 hrs by MTT assay relative to control; format: cell-based, MCF-10A
[8] = Safety index, ratio of compound IC50 to SAHA IC50 for human MCF10A cells; format: ADME, cell-based, MCF-10A; conditions: read-out: Ratio IC50
Raji [9] = experiment: Potency index, ratio of SAHA IC50 to compound IC50 for human Raji cells; format: functional
MDA-MB-231 [10] = experiment: Induction of apoptosis in human MDA-MB-231 cells assessed as early apoptotic cells at 2.5 uM after 48 hrs by Annexin V-FITC/propidium iodide staining based flow cytometry (reference value: 1.27%); format: functional
MDA-MB-231 [11] = experiment: Induction of apoptosis in human MDA-MB-231 cells assessed as late apoptotic cells at 2.5 uM after 48 hrs by Annexin V-FITC/propidium iodide staining based flow cytometry (reference value: 3.82%); format: functional
MDA-MB-231 [12] = experiment: Induction of apoptosis in human MDA-MB-231 cells assessed as necrotic cells at 2.5 uM after 48 hrs by Annexin V-FITC/propidium iodide staining based flow cytometry (reference value: 0.024%); format: functional
MDA-MB-231 [13] = experiment: Induction of apoptosis in human MDA-MB-231 cells assessed as viable cells at 2.5 uM after 48 hrs by Annexin V-FITC/propidium iodide staining based flow cytometry (reference value: 94.9%); format: functional; conditions: MDA-MB-231, 48 h, read-out: Activity
MDA-MB-231 [14] = experiment: Induction of apoptosis in human MDA-MB-231 cells assessed as early apoptotic cells at 5 uM after 48 hrs by Annexin V-FITC/propidium iodide staining based flow cytometry (reference value: 1.27%); format: functional
MDA-MB-231 [15] = experiment: Induction of apoptosis in human MDA-MB-231 cells assessed as late apoptotic cells at 5 uM after 48 hrs by Annexin V-FITC/propidium iodide staining based flow cytometry (reference value: 3.82%); format: functional
MDA-MB-231 [16] = experiment: Induction of apoptosis in human MDA-MB-231 cells assessed as necrotic cells at 5 uM after 48 hrs by Annexin V-FITC/propidium iodide staining based flow cytometry (reference value: 0.024%); format: functional
MDA-MB-231 [17] = experiment: Induction of apoptosis in human MDA-MB-231 cells assessed as viable cells at 5 uM after 48 hrs by Annexin V-FITC/propidium iodide staining based flow cytometry (reference value: 94.9%); format: functional; conditions: MDA-MB-231, 48 h, read-out: Activity
MDA-MB-231 [18] = experiment: Induction of apoptosis in human MDA-MB-231 cells assessed as early apoptotic cells at 10 uM after 48 hrs by Annexin V-FITC/propidium iodide staining based flow cytometry (reference value: 1.27%); format: functional
MDA-MB-231 [19] = experiment: Induction of apoptosis in human MDA-MB-231 cells assessed as late apoptotic cells at 10 uM after 48 hrs by Annexin V-FITC/propidium iodide staining based flow cytometry (reference value: 3.82%); format: functional
MDA-MB-231 [20] = experiment: Induction of apoptosis in human MDA-MB-231 cells assessed as necrotic cells at 10 uM after 48 hrs by Annexin V-FITC/propidium iodide staining based flow cytometry (reference value: 0.024%); format: functional
MDA-MB-231 [21] = experiment: Induction of apoptosis in human MDA-MB-231 cells assessed as viable cells at 10 uM after 48 hrs by Annexin V-FITC/propidium iodide staining based flow cytometry (reference value: 94.9%); format: functional; conditions: MDA-MB-231, 48 h, read-out: Activity
MDA-MB-231 [22] = experiment: Induction of apoptosis in human MDA-MB-231 cells assessed as reduction in full length PARP level measured after 24 hrs by Western blot analysis; format: functional, cell-based
MDA-MB-231 [23] = experiment: Induction of apoptosis in human MDA-MB-231 cells assessed as increase in cleave PARP level measured after 24 hrs by Western blot analysis; format: functional, cell-based
Homo sapiens [24] = organism: Homo sapiens; experiment: Inhibition of HDAC in human MDA-MB-231 cells assessed as increase in acetylation of histone H3K9 level up to 10 uM after 24 hrs by Western blot analysis; format: cell-based
Homo sapiens [25] = organism: Homo sapiens; experiment: Inhibition of HDAC in human MDA-MB-231 cells assessed as increase in hyperacetylation of histone H4K8 level up to 10 uM after 24 hrs by Western blot analysis; format: cell-based
MDA-MB-231 [26] = experiment: Induction of apoptosis in human MDA-MB-231 cells assessed as increase in gamma-H2AX level up to 10 uM after 24 hrs by Western blot analysis; format: functional, cell-based
MDA-MB-231 [27] = experiment: Induction of apoptosis in human MDA-MB-231 cells assessed as increase in cleave caspase-3 level up to 10 uM measured after 24 hrs by Western blot analysis; format: functional, cell-based
MDA-MB-231 [28] = experiment: Induction of apoptosis in human MDA-MB-231 cells assessed as increase in cleave caspase-7 level up to 10 uM measured after 24 hrs by Western blot analysis; format: functional, cell-based
MDA-MB-231 [29] = experiment: Induction of apoptosis in human MDA-MB-231 cells assessed as increase in cleave caspase-8 level up to 10 uM measured after 24 hrs by Western blot analysis; format: functional, cell-based
MDA-MB-231 [30] = experiment: Induction of apoptosis in human MDA-MB-231 cells assessed as increase in cleave caspase-9 level at 10 uM measured after 24 hrs by Western blot analysis; format: functional, cell-based
MDA-MB-231 [31] = experiment: Decrease in BRCA1 protein level in human MDA-MB-231 cells up to 10 uM measured after 24 hrs by Western blot analysis; format: functional, cell-based
MDA-MB-231 [32] = experiment: Decrease in RAd51 protein level in human MDA-MB-231 cells up to 10 uM measured after 24 hrs by Western blot analysis; format: functional, cell-based
MDA-MB-231 [33] = experiment: Induction of apoptosis in human MDA-MB-231 cells after 48 hrs by Annexin V-FITC/propidium iodide staining based flow cytometry; format: functional, cell-based

## O=C(c1cc(Cc2n[nH]c(=O)c3ccccc23)ccc1F)N1CCN(C(=O)C2CC2)CC1 [OLAPARIB]
T47D
  IC50: > 50 µM
MCF7
  IC50: 35.2 µM
MDA-MB-231 [1]
  IC50: 39.5 µM
HCC827
  IC50: > 50 µM
HeLa
  IC50: > 50 µM
K562
  IC50: > 50 µM
U-937
  IC50: 21.8 µM
MDA-MB-231 [2]
  IC50: 7.92 µM
MCF-10A
  IC50: > 50 µM
Raji [3]
  IC50: > 50 µM
HCC1937
  IC50: 8.65 µM

## O=C(Cc1ccc(CN2CCN(C(=O)c3cc(Cc4n[nH]c(=O)c5ccccc45)ccc3F)CC2)cc1)NO
[4]
  IC50: 0.0204 µM
[5]
  IC50: 0.0491 µM
Histone deacetylase 1
  IC50: 0.912 µM
[6]
  IC50: 0.129 µM
T47D
  IC50: > 50 µM
MCF7
  IC50: 41.8 µM
MDA-MB-231 [1]
  IC50: 57.9 µM
HCC827
  IC50: 32.1 µM
HeLa
  IC50: > 50 µM
K562
  IC50: > 50 µM
U-937
  IC50: 31 µM
MDA-MB-231 [2]
  IC50: 35.4 µM
MCF-10A
  IC50: > 50 µM
[7]
  inhibition at 72 h: 20 to 30%

## O=C(/C=C/c1ccc(CCNC(=O)c2cc(Cc3n[nH]c(=O)c4ccccc34)ccc2F)cc1)NO
[4]
  IC50: 0.0682 µM
[5]
  IC50: 0.00502 µM
Histone deacetylase 1
  IC50: 0.0273 µM
[6]
  IC50: 0.00821 µM
T47D
  IC50: 2.14 µM
MCF7
  IC50: 3.55 µM
MDA-MB-231 [1]
  IC50: 1.54 µM
HCC827
  IC50: 1.79 µM
HeLa
  IC50: 5.1 µM
K562
  IC50: 5.55 µM
U-937
  IC50: 4.5 µM
MDA-MB-231 [2]
  IC50: 0.22 µM
MCF-10A
  IC50: 8.65 µM
[8]
  selectivity ratio: 4.1
Raji [3]
  IC50: 1.29 µM
HCC1937
  IC50: 2.02 µM
Raji [9]
  Ratio IC50: 7
MDA-MB-231 [10]
  Activity: 10.4%
MDA-MB-231 [11]
  Activity: 8.03%
MDA-MB-231 [12]
  Activity: 2.29%
MDA-MB-231 [13]
  viability at 2.5 µM: 79.2%
MDA-MB-231 [14]
  Activity: 28.6%
MDA-MB-231 [15]
  Activity: 33.5%
MDA-MB-231 [16]
  Activity: 2.79%
MDA-MB-231 [17]
  viability at 5 µM: 35.1%
MDA-MB-231 [18]
  Activity: 47%
MDA-MB-231 [19]
  Activity: 45.8%
MDA-MB-231 [20]
  Activity: 0.447%
MDA-MB-231 [21]
  viability at 10 µM: 6.79%
MDA-MB-231 [22]
  Activity: Dose-dependent effect
MDA-MB-231 [23]
  Activity: Dose-dependent effect
Homo sapiens [24]
  inhibition: Active
Homo sapiens [25]
  inhibition: Active
MDA-MB-231 [26]
  Activity: Active
MDA-MB-231 [27]
  Activity: Active
MDA-MB-231 [28]
  Activity: Active
MDA-MB-231 [29]
  Activity: Active
MDA-MB-231 [30]
  Activity: Active
MDA-MB-231 [31]
  Activity: Active
MDA-MB-231 [32]
  Activity: Active
MDA-MB-231 [33]
  Activity: Dose-dependent effect
